Measured values reported in the supplement of paper PMC10627819.

Tested on: S. pneumoniae D39V
Assay: fitness (endpoint OD595 vs no drug) (fraction); higher = more growth
Procedure, shortened: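 In 384-well plates at 37 °C, cultures began at OD595 0.01 in 30 µl, with 55 µl used for S. pneumoniae. OD595 readings every 30 min for 14 h were corrected by the first reading. Fitness divides the stationary-phase transition optical density by the robust mean of no-drug control wells. The result is capped at 1.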
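Further: OD595 on entry to stationary phase over no-drug wells; at most 1.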

CC(=O)Oc1ccccc1C(=O)O [Acetylsalicylic acid] + CN(C)c1cc(NC(=O)CNC(C)(C)C)c(O)c2c1C[C@H]1C[C@H]3[C@H](N(C)C)C(O)=C(C(N)=O)C(=O)[C@@]3(O)C(O)=C1C2=O [Tigecycline]
fitness
Details | partner 0.325 µg/mL | partner 0.65 µg/mL | partner 1.3 µg/mL | partner 2.6 µg/mL
first compound 250 µg/mL | 0.934 | 0.968 | 1 | 0.932
first compound 500 µg/mL | 0.904 | 0.985 | 0.949 | 0.95
first compound 1000 µg/mL | 0.797 | 0.763 | 0.803 | 0.718

CC(=O)Oc1ccccc1C(=O)O [Acetylsalicylic acid] + CO[C@H]1/C=C/O[C@@]2(C)Oc3c(C)c(O)c4c(O)c(c(/C=N/N5CCN(C)CC5)c(O)c4c3C2=O)NC(=O)/C(C)=C\C=C\[C@H](C)[C@H](O)[C@@H](C)[C@@H](O)[C@@H](C)[C@H](OC(C)=O)[C@@H]1C [Rifampicin]
fitness
Details | first compound 250 µg/mL | first compound 500 µg/mL | first compound 1000 µg/mL
partner 0.025 µg/mL | 0.932 | 0.913 | 0.81
partner 0.05 µg/mL | – | 0.899 | 0.668
partner 0.1 µg/mL | 0.476 | 0.37 | –

partner 0.2 µg/mL, one replicate
Details | fitness
first compound 250 µg/mL | 0
first compound 500 µg/mL | 0
first compound 1000 µg/mL | 0

CC(=O)Oc1ccccc1C(=O)O [Acetylsalicylic acid] + CC(C1CCC(C(O1)OC2C(CC(C(C2O)OC3C(C(C(CO3)(C)O)NC)O)N)N)N)NC [Gentamicin]
fitness, main component drawn
Details | partner 2 µg/mL | partner 4 µg/mL | partner 8 µg/mL
first compound 250 µg/mL | 0.955 | 0.967 | 0.93
first compound 500 µg/mL | 0.972 | 0.947 | 0.917

C[C@H]1c2cccc(O)c2C(=O)C2=C(O)[C@]3(O)C(=O)C(C(N)=O)=C(O)[C@@H](N(C)C)[C@@H]3[C@@H](O)[C@@H]21 [Doxycycline] + CO[C@@]12[C@H](COC(N)=O)C3=C(C(=O)C(C)=C(N)C3=O)N1C[C@@H]1N[C@@H]12 [Mitomycin C]
fitness, one replicate
Details | first compound 0.003875 µg/mL | first compound 0.00775 µg/mL | first compound 0.031 µg/mL | first compound 0.062 µg/mL
partner 0.002 µg/mL | 0.897 | 0.823 | 0.833 | 0.64
partner 0.004 µg/mL | 0.848 | 0.828 | 0.783 | 0.616
partner 0.008 µg/mL | 0.615 | 0.622 | 0.622 | 0.456

fitness
Details | partner 0.001075 µg/mL | partner 0.002 µg/mL | partner 0.00215 µg/mL | partner 0.004 µg/mL | partner 0.0043 µg/mL | partner 0.008 µg/mL
first compound 0.0155 µg/mL | 0.863 | 0.82 | 0.819 | 0.792 | 0.717 | 0.699
first compound 0.031 µg/mL | 0.816 | – | 0.814 | – | 0.649 | –
first compound 0.062 µg/mL | 0.743 | – | 0.771 | – | 0.63 | –

CN(C)[C@@H]1C(O)=C(C(N)=O)C(=O)[C@@]2(O)C(O)=C3C(=O)c4c(O)ccc(Cl)c4[C@@](C)(O)[C@H]3C[C@@H]12 [Chlortetracycline] + O=C1CN(/N=C/c2ccc([N+](=O)[O-])o2)C(=O)N1 [Nitrofurantoin]
fitness
Details | first compound 0.012 µg/mL | first compound 0.024 µg/mL | first compound 0.048 µg/mL | first compound 0.375 µg/mL | first compound 0.75 µg/mL | first compound 1.5 µg/mL
partner 1.285 µg/mL | 0.958 | 0.896 | 0.842 | – | – | –
partner 2 µg/mL | – | – | – | 0.034 | 0.0485 | 0.0311
partner 2.57 µg/mL | 0.96 | 0.951 | 0.836 | – | – | –
partner 4 µg/mL | – | – | – | 0.0275 | 0.0381 | 0.0293
partner 8 µg/mL | – | – | – | 0.0328 | 0.0386 | 0.0233

partner 5.14 µg/mL, one replicate
Details | fitness
first compound 0.012 µg/mL | 0.862
first compound 0.024 µg/mL | 0.898
first compound 0.048 µg/mL | 0.762

CC(=O)Oc1ccccc1C(=O)O [Acetylsalicylic acid] + O=C(O)c1cn(C2CC2)c2cc(N3CCNCC3)c(F)cc2c1=O [Ciprofloxacin]
fitness
Details | first compound 250 µg/mL | first compound 500 µg/mL | first compound 1000 µg/mL
partner 0.125 µg/mL | 0.963 | 0.907 | 0.863
partner 0.25 µg/mL | 0.883 | 0.904 | 0.833
partner 0.5 µg/mL | 0.835 | 0.835 | 0.719

CC(=O)Oc1ccccc1C(=O)O [Acetylsalicylic acid] + C[C@H]1COc2c(N3CCN(C)CC3)c(F)cc3c(=O)c(C(=O)O)cn1c23 [Levofloxacin]
fitness
Details | partner 0.1725 µg/mL | partner 0.2 µg/mL | partner 0.345 µg/mL | partner 0.4 µg/mL | partner 0.69 µg/mL | partner 0.8 µg/mL
first compound 250 µg/mL | 0.992 | 0.92 | 0.954 | 0.868 | 0.671 | 0.673
first compound 500 µg/mL | ≥ 1 | 0.929 | 0.9 | 0.898 | 0.692 | 0.653
first compound 1000 µg/mL | 0.95 | 0.881 | 0.938 | 0.734 | 0.716 | 0.513
